Like-named read-outs stand apart in the source and are kept apart here.
How the values were obtained:
[1] = system: KP1087 (KPC-2, CTX-M-15, SHV-11, TEM-1); type: cell-based, Klebsiella pneumoniae
Source text: (§1) The results are present in Table 6.
(§2) The results are present in Table 7.

[2] = system: KP1081 (NDM-1, TEM-1, SHV-11, CMY-6, CTX-M-15); type: cell-based, Klebsiella pneumoniae
Source text: as §1, §2

ECM6711 (pUCP24-VIM-1) = assay: microbe, parasite or virus in culture; type: cell-based, E. coli; conditions: Escherichia coli, read-out: Imipenem MIC Alone
KP1014 (Vim-1, TEM, SHV) = type: cell-based, Klebsiella pneumoniae
Source text: (§3) Several strains simultaneously expressing both class A and class B carbapenemases, which were constructed using conjugation, were also included in the panel.

KP1059 (VIM-1, SHV-11) = type: cell-based, Klebsiella pneumoniae
Source text: as §3

KP1064 (KPC TEM SHV) = type: cell-based, Klebsiella pneumoniae
Source text: as §3

[3] = system: KPM1346 (NDM-1 TEM SHV CTX-M-15 CMY); type: cell-based, Klebsiella pneumoniae
Source text: as §3

KPM1108 (NDM, KPC) = type: cell-based, Klebsiella pneumoniae
Source text: as §3

KPM1110 (NDM, KPC) = type: cell-based, Klebsiella pneumoniae
Source text: as §3

KPM1344 (VIM-1) = type: cell-based, Klebsiella pneumoniae
Source text: as §3

[4] = system: KP1084 (KPC-3, SHV-11, TEM-1); type: cell-based, Klebsiella pneumoniae
Source text: as §3

KPM1107 (NDM, KPC) = type: cell-based, Klebsiella pneumoniae
Source text: as §3

KPM1345 (VIM-1 SHV) = type: cell-based, Klebsiella pneumoniae
Source text: as §3

KPM1123 (KPC-2 TEM SHV) = type: cell-based, Klebsiella pneumoniae
Source text: as §3

KPM1111 (NDM, KPC) = type: cell-based, Klebsiella pneumoniae
Source text: as §3

KP1065 (VIM-1, SHV-11) = type: cell-based, Klebsiella pneumoniae
Source text: as §3

KPM1109 (NDM, KPC) = type: cell-based, Klebsiella pneumoniae
Source text: as §3

[5] = system: KP1081 (NDM-1, TEM-1, SHV-11, CMY-6, CTX-M-15); type: cell-based, Klebsiella pneumoniae; remark: listed apart in the source
Source text: as §3

KP1004 (KPC TEM SHV) = type: cell-based, Klebsiella pneumoniae
Source text: as §3

KP1098 (IMP-26 TEM SHV) = type: cell-based, Klebsiella pneumoniae
Source text: as §3

KP1054 (VIM-1, SHV-11) = type: cell-based, Klebsiella pneumoniae
Source text: as §3

KP1061 (KPC TEM SHV) = type: cell-based, Klebsiella pneumoniae
Source text: as §3

KPM1122 (NDM, VIM) = type: cell-based, Klebsiella pneumoniae
Source text: as §3

C[C@@H](O)[C@H]1C(=O)N2C(C(=O)O)=C(SCCN=CN)C[C@H]12 [Imipenem, reference compound]
Carbapenem MIC alone [1]: Y (key: X: MIC of less than 1 μg/mL; Y: MIC of 1 μg/mL to 10 μg/mL; Z: MIC of greater than 10 μg/mL) | Carbapenem MIC alone [2]: Z (key: X: MIC of less than 1 μg/mL; Y: MIC of 1 μg/mL to 10 μg/mL; Z: MIC of greater than 10 μg/mL) | MIC (ECM6711 (pUCP24-VIM-1)): > 1 µg/mL | Carbapenem MIC alone (KP1014 (Vim-1, TEM, SHV)): Z (key: X: MIC of less than 1 μg/mL; Y: MIC of 1 μg/mL to 10 μg/mL; Z: MIC of greater than 10 μg/mL) | Carbapenem MIC alone (KP1059 (VIM-1, SHV-11)): Z (key: X: MIC of less than 1 μg/mL; Y: MIC of 1 μg/mL to 10 μg/mL; Z: MIC of greater than 10 μg/mL) | Carbapenem MIC alone (KP1064 (KPC TEM SHV)): Z (key: X: MIC of less than 1 μg/mL; Y: MIC of 1 μg/mL to 10 μg/mL; Z: MIC of greater than 10 μg/mL) | Carbapenem MIC alone [3]: Z (key: X: MIC of less than 1 μg/mL; Y: MIC of 1 μg/mL to 10 μg/mL; Z: MIC of greater than 10 μg/mL) | Carbapenem MIC alone (KPM1108 (NDM, KPC)): Z (key: X: MIC of less than 1 μg/mL; Y: MIC of 1 μg/mL to 10 μg/mL; Z: MIC of greater than 10 μg/mL) | Carbapenem MIC alone (KPM1110 (NDM, KPC)): Z (key: X: MIC of less than 1 μg/mL; Y: MIC of 1 μg/mL to 10 μg/mL; Z: MIC of greater than 10 μg/mL) | Carbapenem MIC alone (KPM1344 (VIM-1)): Z (key: X: MIC of less than 1 μg/mL; Y: MIC of 1 μg/mL to 10 μg/mL; Z: MIC of greater than 10 μg/mL) | Carbapenem MIC alone [4]: Z (key: X: MIC of less than 1 μg/mL; Y: MIC of 1 μg/mL to 10 μg/mL; Z: MIC of greater than 10 μg/mL) | Carbapenem MIC alone (KPM1107 (NDM, KPC)): Z (key: X: MIC of less than 1 μg/mL; Y: MIC of 1 μg/mL to 10 μg/mL; Z: MIC of greater than 10 μg/mL) | Carbapenem MIC alone (KPM1345 (VIM-1 SHV)): Y (key: X: MIC of less than 1 μg/mL; Y: MIC of 1 μg/mL to 10 μg/mL; Z: MIC of greater than 10 μg/mL) | Carbapenem MIC alone (KPM1123 (KPC-2 TEM SHV)): Z (key: X: MIC of less than 1 μg/mL; Y: MIC of 1 μg/mL to 10 μg/mL; Z: MIC of greater than 10 μg/mL) | Carbapenem MIC alone (KPM1111 (NDM, KPC)): Z (key: X: MIC of less than 1 μg/mL; Y: MIC of 1 μg/mL to 10 μg/mL; Z: MIC of greater than 10 μg/mL) | Carbapenem MIC alone (KP1065 (VIM-1, SHV-11)): Y (key: X: MIC of less than 1 μg/mL; Y: MIC of 1 μg/mL to 10 μg/mL; Z: MIC of greater than 10 μg/mL) | Carbapenem MIC alone (KPM1109 (NDM, KPC)): Z (key: X: MIC of less than 1 μg/mL; Y: MIC of 1 μg/mL to 10 μg/mL; Z: MIC of greater than 10 μg/mL) | Carbapenem MIC alone [5]: Z (key: X: MIC of less than 1 μg/mL; Y: MIC of 1 μg/mL to 10 μg/mL; Z: MIC of greater than 10 μg/mL) | Carbapenem MIC alone (KP1004 (KPC TEM SHV)): Z (key: X: MIC of less than 1 μg/mL; Y: MIC of 1 μg/mL to 10 μg/mL; Z: MIC of greater than 10 μg/mL) | Carbapenem MIC alone (KP1098 (IMP-26 TEM SHV)): Y (key: X: MIC of less than 1 μg/mL; Y: MIC of 1 μg/mL to 10 μg/mL; Z: MIC of greater than 10 μg/mL) | Carbapenem MIC alone (KP1054 (VIM-1, SHV-11)): Y (key: X: MIC of less than 1 μg/mL; Y: MIC of 1 μg/mL to 10 μg/mL; Z: MIC of greater than 10 μg/mL) | Carbapenem MIC alone (KP1061 (KPC TEM SHV)): Z (key: X: MIC of less than 1 μg/mL; Y: MIC of 1 μg/mL to 10 μg/mL; Z: MIC of greater than 10 μg/mL) | Carbapenem MIC alone (KPM1122 (NDM, VIM)): Z (key: X: MIC of less than 1 μg/mL; Y: MIC of 1 μg/mL to 10 μg/mL; Z: MIC of greater than 10 μg/mL)

— US9132140B2, “Boronic acid derivatives and therapeutic uses thereof” (Rempex Pharmaceuticals, Inc., priority 2013, dated 2015)
